Results reported in patent US4363805A, “Aminodesoxy-1.4;3.6-dianhydrohexitol nitrates and pharmaceutical composition” (Firma Willmar Schwabe, priority 1980, dated 1982).

Key:
narcotised guinea pigs = experiment: Blood pressure experiments on guinea pigs, i.v.; assay type: in vivo, guinea pig; details: for blood pressure before: before administration
[1] = tested on: isolated guinea pig hearts; experiment: Experiments on Langendorff hearts (coronary flowthrough, inotropism, frequency); details: Cavia porcellus, read-out: flowthrough, percentage change with regard to the initial value
Experimental: After reaching the stationary state in the 30th minute, the hearts were each perfused with 50 ml. tyrode solution with a content of test substance of, in each case, 25 μg./ml. Each test substance was tested on 3-6 hearts.
In each case, there was measured the inotropism, the flowthrough and the frequency, whereby the values given in Table I are average values of the percentage changes in comparison with the initial values.

mongrel cats = experiment: Inotropic and heart-circulatory effectiveness on narcotised cats, intravenous; assay type: in vivo, cat; details: 6 animals; for blood pressure before / dp/dt (inotropism) before / heart frequency before: before administration

## CC(C)(C)C(=O)N[C@H]1CO[C@H]2[C@@H]1OC[C@@H]2O[N+](=O)[O-] [Example 5, 5-Pivaloylamino-5-desoxy-1.4;3.6-dianhydro-L-iditol 2-nitrate]
Narcotised guinea pigs; 0.25 mg/kg i.v.
  blood pressure after: 54.00 ± 2.52 mm.Hg
  blood pressure Δ: -10.50 mm.Hg
  blood pressure before: 64.50 ± 2.75 mm.Hg
Narcotised guinea pigs; 1.00 mg/kg i.v.
  blood pressure after: 40.50 ± 3.66 mm.Hg
  blood pressure Δ: -22.75 mm.Hg
Narcotised guinea pigs; 2.50 mg/kg i.v.
  blood pressure after: 30.75 ± 8.60 mm.Hg
  blood pressure Δ: -31.75 mm.Hg
Narcotised guinea pigs; i.v.
  blood pressure-lowering effectiveness (in words): stronger action than ISDN
[1]
  activation at 25 µg/mL: 21.2%

## CCN[C@H]1CO[C@H]2[C@@H]1OC[C@@H]2O[N+](=O)[O-] [10 b]
Narcotised guinea pigs; 0.25 mg/kg i.v.
  blood pressure after: 37.25 ± 2.06 mm.Hg
  blood pressure Δ: -6.00 mm.Hg
  blood pressure before: 43.25 ± 2.21 mm.Hg
Narcotised guinea pigs; 1.00 mg/kg i.v.
  blood pressure after: 32.00 ± 2.04 mm.Hg
  blood pressure Δ: -11.25 mm.Hg
Narcotised guinea pigs; 2.50 mg/kg i.v.
  blood pressure after: 27.25 ± 1.60 mm.Hg
  blood pressure Δ: -15.50 mm.Hg
[1]
  activation at 25 µg/mL: 25.9%

## C=CCc1ccccc1OCC(O)CN[C@H]1CO[C@H]2[C@@H]1OC[C@@H]2O[N+](=O)[O-] (stereo partly drawn) [Example 49, 5-[2-Hydroxy-3-(2-allylphenoxy)-propylamino]-5-desoxy-1.4;3.6-dianhydro-L-iditol 2-nitrate]
Mongrel cats; 0.25 mg/kg i.v.
  blood pressure before: 116.6 mm.Hg
  dp/dt (inotropism) before: 7840 mm.Hg/sec
  heart frequency before: 200.4 min⁻¹
  blood pressure WD: 2.8 min
  blood pressure after: 113.6 mm.Hg
  blood pressure Δ: -3.0 mm.Hg
  dp/dt (inotropism) after: 7360 mm.Hg/sec
  dp/dt (inotropism) Δ: -480 mm.Hg/sec
  dp/dt WD: 3.1 min
  heart frequency after: 201.2 min⁻¹
  heart frequency Δ: +0.8 min^-1
Mongrel cats; 0.50 mg/kg i.v.
  blood pressure WD: 3.7 min
  blood pressure after: 110.6 mm.Hg
  blood pressure Δ: -9.2 mm.Hg
  dp/dt (inotropism) after: 6540 mm.Hg/sec
  dp/dt (inotropism) Δ: -1060 mm.Hg/sec
  dp/dt WD: 14.0 min
  heart frequency after: 202.0 min⁻¹
  heart frequency Δ: +2.0 min^-1
Mongrel cats; 1.00 mg/kg i.v.
  blood pressure WD: 11.6 min
  blood pressure after: 105.8 mm.Hg
  blood pressure Δ: -16.8 mm.Hg
  dp/dt (inotropism) after: 4680 mm.Hg/sec
  dp/dt (inotropism) Δ: -2260 mm.Hg/sec
  dp/dt WD: > 40 min
  heart frequency after: 188.4 min⁻¹
  heart frequency Δ: -5.6 min⁻¹
Mongrel cats; 2.50 mg/kg i.v.
  blood pressure WD: > 10 min
  blood pressure after: 86.6 mm.Hg
  blood pressure Δ: -35.0 mm.Hg
  dp/dt (inotropism) after: 3780 mm.Hg/sec
  dp/dt (inotropism) Δ: -2900 mm.Hg/sec
  dp/dt WD: > 10 min
  heart frequency after: 170.4 min⁻¹
  heart frequency Δ: -20.8 min⁻¹
Narcotised guinea pigs; 0.25 mg/kg i.v.
  blood pressure after: 43.50 ± 3.38 mm.Hg
  blood pressure Δ: -2.25 mm.Hg
  blood pressure before: 45.75 ± 2.53 mm.Hg
Narcotised guinea pigs; 1.00 mg/kg i.v.
  blood pressure after: 30.25 ± 1.70 mm.Hg
  blood pressure Δ: -12.75 mm.Hg
Narcotised guinea pigs; 2.50 mg/kg i.v.
  blood pressure after: 20.25 ± 1.03 mm.Hg
  blood pressure Δ: -22.50 mm.Hg
[1]
  activation at 25 µg/mL: 191%

## O=[N+]([O-])O[C@H]1CO[C@H]2[C@@H]1OC[C@H]2NCC(O)COc1cccc2ccccc12 (stereo partly drawn) [Example 55, 5-[2-Hydroxy-3-(1-naphthyloxy)-propylamino]-5-desoxy-1.4;3.6-dianhydro-D-glucitol 2-nitrate]
Mongrel cats; 0.25 mg/kg i.v.
  blood pressure before: 113.8 mm.Hg
  dp/dt (inotropism) before: 5633 mm.Hg/sec
  heart frequency before: 161.7 min⁻¹
  blood pressure WD: 4.8 min
  blood pressure after: 107.0 mm.Hg
  blood pressure Δ: -6.8 mm.Hg
  dp/dt (inotropism) after: 5200 mm.Hg/sec
  dp/dt (inotropism) Δ: -433 mm.Hg/sec
  dp/dt WD: 4.2 min
  heart frequency after: 164.7 min⁻¹
  heart frequency Δ: +3.0 min^-1
Mongrel cats; 0.50 mg/kg i.v.
  blood pressure WD: 2.8 min
  blood pressure after: 98.8 mm.Hg
  blood pressure Δ: -12.7 mm.Hg
  dp/dt (inotropism) after: 4667 mm.Hg/sec
  dp/dt (inotropism) Δ: -533 mm.Hg/sec
  dp/dt WD: 5.2 min
  heart frequency after: 157.3 min⁻¹
  heart frequency Δ: +2.0 min^-1
Mongrel cats; 1.00 mg/kg i.v.
  blood pressure WD: 5.2 min
  blood pressure after: 96.8 mm.Hg
  blood pressure Δ: -18.2 mm.Hg
  dp/dt (inotropism) after: 4000 mm.Hg/sec
  dp/dt (inotropism) Δ: -1117 mm.Hg/sec
  dp/dt WD: 8.9 min
  heart frequency after: 154.0 min⁻¹
  heart frequency Δ: -1.3 min⁻¹
Mongrel cats; 2.50 mg/kg i.v.
  blood pressure WD: 6.3 min
  blood pressure after: 94.3 mm.Hg
  blood pressure Δ: -26.0 mm.Hg
  dp/dt (inotropism) after: 3517 mm.Hg/sec
  dp/dt (inotropism) Δ: -1266 mm.Hg/sec
  dp/dt WD: > 7.8 min
  heart frequency after: 148.0 min⁻¹
  heart frequency Δ: 0 min⁻¹
[1]
  activation at 25 µg/mL: 203%

## O=[N+]([O-])O[C@@H]1CO[C@H]2[C@@H]1OC[C@@H]2O [ISMN, 1.4;3.6-dianhydro-D-glucitol 2-nitrate, reference compound]
Narcotised guinea pigs; 0.25 mg/kg i.v.
  blood pressure Δ: -3.70 mm.Hg
Narcotised guinea pigs; 1.00 mg/kg i.v.
  blood pressure Δ: -6.30 mm.Hg
Narcotised guinea pigs; 2.50 mg/kg i.v.
  blood pressure Δ: -10.90 mm.Hg
[1]
  activation at 25 µg/mL: 9.11%
